Data on 20 compounds can be found in patent publication US20240360082A1, “SUBSTITUTED PYRIDONE COMPOUNDS USEFUL TO TREAT ORTH[…]” (priority 2021, published 2024).

For one experiment, the target named is influenza A virus minigenome (PB2, PB1, PA, NP proteins) (UniProt P04665). The experiment is classed as cell-based. The note with it: read-out: RNP_ Hubei B IC50.
Sequence of influenza A virus minigenome (PB2, PB1, PA, NP proteins) (P04665 whole entry): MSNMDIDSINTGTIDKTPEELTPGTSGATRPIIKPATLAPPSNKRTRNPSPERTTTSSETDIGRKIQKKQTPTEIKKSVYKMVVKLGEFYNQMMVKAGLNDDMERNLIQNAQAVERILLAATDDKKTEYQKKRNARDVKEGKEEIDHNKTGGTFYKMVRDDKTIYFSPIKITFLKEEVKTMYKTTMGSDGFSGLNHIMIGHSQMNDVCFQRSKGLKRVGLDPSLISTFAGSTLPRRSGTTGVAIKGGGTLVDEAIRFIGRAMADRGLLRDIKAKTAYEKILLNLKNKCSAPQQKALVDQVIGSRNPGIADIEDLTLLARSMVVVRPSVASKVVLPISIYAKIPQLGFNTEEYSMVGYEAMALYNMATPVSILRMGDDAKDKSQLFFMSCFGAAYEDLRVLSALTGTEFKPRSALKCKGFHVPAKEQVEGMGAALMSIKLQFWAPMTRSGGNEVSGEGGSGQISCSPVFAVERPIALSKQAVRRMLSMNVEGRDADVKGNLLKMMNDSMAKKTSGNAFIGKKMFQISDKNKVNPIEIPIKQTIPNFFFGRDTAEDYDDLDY
Take `NC(=O)c1cc(-c2ccc(OCC3C[C@@H]4CC[C@H]3O4)cc2)c(C(F)(F)F)[nH]c1=O` (single isomer, unassigned) [Example 313, 5-(4-((7-oxabicyclo[2.2.1]heptan-2-yl)methoxy)phenyl)-2-oxo-6-(trifluoromethyl)-1,2-dihydropyridine-3-carboxamide]: the IC50 fell in the range of 10 to 25 µM.
For `NC(=O)c1cc(-c2ccc(OCC3C[C@@H]4CC[C@H]3O4)cc2)c(C(F)(F)F)[nH]c1=O` (single isomer, unassigned) [Example 314, 5-(4-((7-oxabicyclo[2.2.1]heptan-2-yl)methoxy)phenyl)-2-oxo-6-(trifluoromethyl)-1,2-dihydropyridine-3-carboxamide], the IC50 lay in the range of 10 to 25 µM.
The same measure, in the same setting: the same measure for `NC(=O)c1cc(-c2ccc(OCC3C[C@@H]4CC[C@H]3O4)cc2)c(C(F)(F)F)[nH]c1=O` (single isomer, unassigned) [Example 315, 5-(4-((7-oxabicyclo[2.2.1]heptan-2-yl)methoxy)phenyl)-2-oxo-6-(trifluoromethyl)-1,2-dihydropyridine-3-carboxamide]: 10 to 25 µM; for `NC(=O)c1cc(-c2ccc(OCC3OCC4CCC3O4)cc2)c(C(F)(F)F)[nH]c1=O` (single isomer, unassigned) [Example 318, 5-(4-((3,8-dioxabicyclo[3.2.1]octan-2-yl)methoxy)phenyl)-2-oxo-6-(trifluoromethyl)-1,2-dihydropyridine-3-carboxamide]: 5 to 10 µM; for `NC(=O)c1cc(-c2ccc(OCC3OCC4CCC3O4)cc2)c(C(F)(F)F)[nH]c1=O` (single isomer, unassigned) [Example 319, 5-(4-((3,8-dioxabicyclo[3.2.1]octan-2-yl)methoxy)phenyl)-2-oxo-6-(trifluoromethyl)-1,2-dihydropyridine-3-carboxamide]: 5 to 10 µM.
Still for that read-out and setting: the result for `CC1COC(COc2ccc(-c3cc(C(N)=O)c(=O)[nH]c3C(F)(F)F)cc2)CO1` (single isomer, unassigned) [Example 322, 5-(4-((5-methyl-1,4-dioxan-2-yl)methoxy)phenyl)-2-oxo-6-(trifluoromethyl)-1,2-dihydropyridine-3-carboxamide] reads 25 to 50 µM.
On the same count and under the same terms, the result for `CC1COC(COc2ccc(-c3cc(C(N)=O)c(=O)[nH]c3C(F)(F)F)cc2)CO1` (single isomer, unassigned) [Example 323, 5-(4-((5-methyl-1,4-dioxan-2-yl)methoxy)phenyl)-2-oxo-6-(trifluoromethyl)-1,2-dihydropyridine-3-carboxamide] reads 10 to 25 µM; that for `NC(=O)c1cc(-c2ccc(OCC3COCC4(CC4)O3)cc2)c(C(F)(F)F)[nH]c1=O` (single isomer, unassigned) [Example 335, (4-(4,7-dioxaspiro[2.5]octan-5-ylmethoxy)phenyl)-2-oxo-6-(trifluoromethyl)-1,2-dihydropyridine-3-carboxamide], 5 to 10 µM.
Take `NC(=O)c1cc(-c2ccc(OCC3COCC(F)(F)C3)cc2)c(C(F)(F)F)[nH]c1=O` (single isomer, unassigned) [Example 336, 5-(4-((5,5-difluorotetrahydro-2H-pyran-3-yl)methoxy)phenyl)-2-oxo-6-(trifluoromethyl)-1,2-dihydropyridine-3-carboxamide]: the IC50 lay in the range of 5 to 10 µM.
The same measure, in the same setting: the result for `NC(=O)c1cc(-c2ccc(OCC3COCC(F)(F)C3)cc2)c(C(F)(F)F)[nH]c1=O` (single isomer, unassigned) [Example 337, 5-(4-((5,5-difluorotetrahydro-2H-pyran-3-yl)methoxy)phenyl)-2-oxo-6-(trifluoromethyl)-1,2-dihydropyridine-3-carboxamide] reads 5 to 10 µM; that for `NC(=O)c1cc(-c2ccc(OCC3COC(CF)CO3)cc2)c(C(F)(F)F)[nH]c1=O` (single isomer, unassigned) [Example 340, 5-(4-((5-(fluoromethyl)-1,4-dioxan-2-yl)methoxy)phenyl)-2-oxo-6-(trifluoromethyl)-1,2-dihydropyridine-3-carboxamide], 5 to 10 µM.
The same measure, in the same setting: the result for `NC(=O)c1cc(-c2ccc(OCC3COC(CF)CO3)cc2)c(C(F)(F)F)[nH]c1=O` (single isomer, unassigned) [Example 341, 5-(4-((5-(fluoromethyl)-1,4-dioxan-2-yl)methoxy)phenyl)-2-oxo-6-(trifluoromethyl)-1,2-dihydropyridine-3-carboxamide] reads 5 to 10 µM; that for `NC(=O)c1cc(-c2ccc(OCC3COC(CF)CO3)cc2)c(C(F)(F)F)[nH]c1=O` (single isomer, unassigned) [Example 342, 5-(4-((5-(fluoromethyl)-1,4-dioxan-2-yl)methoxy)phenyl)-2-oxo-6-(trifluoromethyl)-1,2-dihydropyridine-3-carboxamide], 5 to 10 µM; that for `NC(=O)c1cc(-c2ccc(OCC3COC(CF)CO3)cc2)c(C(F)(F)F)[nH]c1=O` (single isomer, unassigned) [Example 343, 5-(4-((5-(fluoromethyl)-1,4-dioxan-2-yl)methoxy)phenyl)-2-oxo-6-(trifluoromethyl)-1,2-dihydropyridine-3-carboxamide], 5 to 10 µM.
For the compound `NC(=O)c1cc(-c2ccc(OCC3COC(C(F)F)CO3)cc2)c(C(F)(F)F)[nH]c1=O` (single isomer, unassigned) [Example 344, 5-(4-((5-(difluoromethyl)-1,4-dioxan-2-yl)methoxy)phenyl)-2-oxo-6-(trifluoromethyl)-1,2-dihydropyridine-3-carboxamide], the IC50 lay in the range of 5 to 10 µM.
On the same count and under the same terms, the result for `NC(=O)c1cc(-c2ccc(OCC3COC(C(F)F)CO3)cc2)c(C(F)(F)F)[nH]c1=O` (single isomer, unassigned) [Example 345, 5-(4-((5-(difluoromethyl)-1,4-dioxan-2-yl)methoxy)phenyl)-2-oxo-6-(trifluoromethyl)-1,2-dihydropyridine-3-carboxamide] reads 5 to 10 µM; that for `NC(=O)c1cc(-c2ccc(OCC3COC(C(F)F)CO3)cc2)c(C(F)(F)F)[nH]c1=O` (single isomer, unassigned) [Example 346, 5-(4-((5-(difluoromethyl)-1,4-dioxan-2-yl)methoxy)phenyl)-2-oxo-6-(trifluoromethyl)-1,2-dihydropyridine-3-carboxamide], 5 to 10 µM.
Same read-out and setting: the same measure for `NC(=O)c1cc(-c2ccc(OCC3COC(C(F)F)CO3)cc2)c(C(F)(F)F)[nH]c1=O` (single isomer, unassigned) [Example 347, 5-(4-((5-(difluoromethyl)-1,4-dioxan-2-yl)methoxy)phenyl)-2-oxo-6-(trifluoromethyl)-1,2-dihydropyridine-3-carboxamide]: 5 to 10 µM.

The experiment is the same for the next values; noted with them: read-out: RNP_Hubei B.
Regarding `NC(=O)c1cc(-c2ccc(OCC3OCC4CCC3O4)cc2)c(C(F)(F)F)[nH]c1=O` (single isomer, unassigned) [Example 317, 5-(4-((3,8-dioxabicyclo[3.2.1]octan-2-yl)methoxy)phenyl)-2-oxo-6-(trifluoromethyl)-1,2-dihydropyridine-3-carboxamide], the IC50 fell in the range of 5 to 10 µM.
As to `NC(=O)c1cc(-c2ccc(OCC3COCC(C(F)F)O3)cc2)c(C(F)(F)F)[nH]c1=O` (single isomer, unassigned) [Example 348, 5-(4-((6-(difluoromethyl)-1,4-dioxan-2-yl)methoxy)phenyl)-2-oxo-6-(trifluoromethyl)-1,2-dihydropyridine-3-carboxamide], the IC50 lay within 5 to 10 µM.
